# Data reported in article PMC4488747, “Inhibition of P-glycoprotein Gene Expression and Function Enhances Triptolide-induced Hepatotoxicity in Mice” (Scientific Reports, 2015).
# Columns and labels:
# [1] = tested on: CYP reductase KO mice; parameters: method as in PMID 21596114; details: cited from earlier work
# [2] = tested on: BALB/C mice; test: Serum ALT and AST (TP-induced hepatotoxicity) in mice; type: in vivo; details: TP 1 mg/kg iv + NC-siRNA, 24 h after TP
# Description: (§1) For TP plasma kinetic study and toxicological evaluation, mice were divided into four groups (n = 5 each) to collect blood and tissue samples: (1) normal + saline group; (2) 1.0 mg/kg TP + 15 nmol NC-siRNA group; (3) 1.0 mg/kg TP + 15 nmol mdr1a-siRNA group; (4) 1.0 mg/kg TP + 10 mg/kg tariquidar group. In order to avoid the complication caused by drug absorption or possible intestinal first-pass effect, TP and the inhibitor were intravenously administrated to mice. The siRNA group was intravenously injected with NC-siRNA or mdr1a-siRNA 2 days before TP dose. For TP + tariquidar group, the mice were received an intravenous tariquidar dose 20 min prior to the TP injection. Blood samples were collected at 2, 5, 10, 15, 30, 60 and 120 min after TP dosing. To assess the liver exposure of TP, liver tissue samples were collected from another set of mice at 5, 30, 60 and 120 min after dosing. Three TP groups were design for this experiment, including TP + NC-siRNA group, TP + mdr1a-siRNA group and TP + tariquidar group. The liver tissue samples were weighed and then homogenized in 10 volume (w:v) of ice-cold saline. The concentrations of TP in plasma and liver tissue were measured by a validated LC-MS/MS method. Prior to the above animal study, a preliminary experiment was performed to assess the possible differences in liver P-gp protein expression (Figure S1) and TP plasma kinetics between NC-siRNA treated mice and normal mice (with saline) (Figure S2 and supplemental Table 1). […] Therefore, NC-siRNA group was used as the control in the following animal study.
# At 24 h of TP treatment, blood and liver tissue samples were collected from the mice in plasma kinetic study. Serum ALT and AST levels were determined with a CL8000 automated biochemical analyzer (Shimadzu, Japan) after serum was separated by centrifugation at 900 g for 10 min. Liver tissue samples were divided into two parts, the first half was kept at −80 °C until MDA and SOD measurements using MDA and SOD assay kits (Nanjing Jiancheng Bioengineering Institute, Nanjing, China) according to the manufacturer’s instructions. The other half was fixed with 4% paraformaldehyde solution and then dehydrated, embedded in paraffin and sectioned at a thickness of 5 μm. Four paraffin sections from each mouse were dewaxed, rehydrated and stained with hematoxylin-eosin (HE) for overall morphological evaluation. The total protein concentration was quantified by the BCA assay. Bcl-2 and Bax proteins were measured by western blot.
# [3] = tested on: BALB/C mice; test: Hepatic MDA content and SOD activity in mice; type: in vivo; details: 24 h; for Hepatic MDA level, fold increase: significance vs normal group
# Description: as §1
# At 24 h of TP treatment, blood and liver tissue samples were collected from the mice in plasma kinetic study. Serum ALT and AST levels were determined with a CL8000 automated biochemical analyzer (Shimadzu, Japan) after serum was separated by centrifugation at 900 g for 10 min. […] The total protein concentration was quantified by the BCA assay. Bcl-2 and Bax proteins were measured by western blot.
# [4] = Preliminary experiment: effect of NC-siRNA on pharmacokinetics of TP in mice; type: in vivo; details: mice, plasma; for AUC(0-t) / Cmax / MRT / Vd / clearance: 1 mg/kg
# Description: Effect of NC-siRNA on pharmacokinetic of TP
# Mice were divided into two groups to collect blood samples (n=5 each): (1) 1.0 mg/kg TP + saline group; (2) 1.0 mg/kg TP + 15 nmol NC-siRNA group. The siRNA group was intravenously injected with NC-siRNA 2 days before TP dose. Blood samples were collected at 2, 5, 10, 15, 30, 60 and 120 min after TP dosing. The concentrations of TP in plasma and liver were measured by a validated LC-MS/MS method.
# [5] = tested on: BALB/C mice; test: Death rate of mice after TP treatment; type: in vivo; details: TP 1 mg/kg iv, pretreatment with mdr1a-siRNA
# Description: For TP plasma kinetic study and toxicological evaluation, mice were divided into four groups (n = 5 each) to collect blood and tissue samples: (1) normal + saline group; (2) 1.0 mg/kg TP + 15 nmol NC-siRNA group; (3) 1.0 mg/kg TP + 15 nmol mdr1a-siRNA group; (4) 1.0 mg/kg TP + 10 mg/kg tariquidar group. In order to avoid the complication caused by drug absorption or possible intestinal first-pass effect, TP and the inhibitor were intravenously administrated to mice. The siRNA group was intravenously injected with NC-siRNA or mdr1a-siRNA 2 days before TP dose. For TP + tariquidar group, the mice were received an intravenous tariquidar dose 20 min prior to the TP injection. Blood samples were collected at 2, 5, 10, 15, 30, 60 and 120 min after TP dosing. To assess the liver exposure of TP, liver tissue samples were collected from another set of mice at 5, 30, 60 and 120 min after dosing. Three TP groups were design for this experiment, including TP + NC-siRNA group, TP + mdr1a-siRNA group and TP + tariquidar group. The liver tissue samples were weighed and then homogenized in 10 volume (w:v) of ice-cold saline. The concentrations of TP in plasma and liver tissue were measured by a validated LC-MS/MS method. […]
# [6] = tested on: P-glycoprotein (P-gp); parameters: method as in PMID 24065861; details: ATPase assay with rat mdr1 membrane; cited from earlier work
# [7] = C57, mouse, iv, TP 1.0 mg/kg + saline
# [8] = C57, mouse, iv, TP 1.0 mg/kg + 15 nmol NC-siRNA iv 2 days before
smiles,measurement,setting,value
"CC(C)[C@]12O[C@H]1[C@@H]1O[C@]13[C@]1(O[C@H]1C[C@H]1C4=C(CC[C@@]13C)C(=O)OC4)[C@@H]2O [TP, Triptolide]",Increase fold of TP hepatic exposure,[1]; at 120 min,about 2 fold
same,Increase in AST level,[1],about 2 fold
same,"Serum ALT level, folds of the normal group",[2],4.2 folds
same,"Serum AST level, folds of the normal group",[2],5.4 folds
same,"Hepatic MDA level, fold increase",[3]; TP 1 mg/kg iv + mdr1a-siRNA,1.6 fold
same,"Hepatic MDA level, fold increase",[3]; TP 1 mg/kg iv + tariquidar 10 mg/kg,1.3 fold
same,Hepatic SOD activity,"[3]; all three TP groups, significant only with tariquidar or mdr1a-siRNA",reduction
same,half-life,[4]; [7],12.6 ± 3 min
same,AUC(0-t),[4]; [8],99.1 ± 11.7 ng·h/mL
same,Cmax,[4]; [8],330 ± 18.2 ng/mL
same,MRT,[4]; [8],15.6 ± 2.4 min
same,Vd,[4]; [8],3.1 ± 0.6 L/kg
same,clearance,[4]; [8],173 mL/min/kg
same,AUC(0-t),[4]; [7],104 ± 13.4 ng·h/mL
same,Cmax,[4]; [7],351 ± 10.9 ng/mL
same,MRT,[4]; [7],13.8 ± 1.8 min
same,Vd,[4]; [7],3 ± 0.3 L/kg
same,clearance,[4]; [7],165 mL/min/kg
same,t1/2,[4]; TP 1.0 mg/kg + 15 nmol NC-siRNA iv 2 days before,12.6 ± 3.6 min
same,Death rate within 30 h of TP treatment,[5],about 60%
same,P-gp substrate identification,[6],substrate
